The subject of assay [1] is ReN VM-immortalized cells, human neural progenitor cell line. Kind of assay: HB9 motor neuron marker expression in neural progenitor cells (differentiation). In kind it is cell-based. To be noted: alone or combined, 3 days. The procedure: ReN VM-immortalized cells, human neural progenitor cell line, were used (EMD Millipore, SCC008). These neural progenitor cells can differentiate into motor neurons and glial cells. The degree of differentiation of neural progenitor cells into motor neurons was determined by analysing the level of HB9, a specific motor neuron marker. ReN VM cells were cultured on laminin (Corning, 354232)-coated 75T Flask in the growth medium, which is DMEM/F12 (Welgene, #LM002-08) supplemented with 20 ng/ml basic fibroblast growth factor (bFGF; Gibco, 15750-060), 20 ng/ml epidermal growth factor (EGF; Sigma, E9644), serum-free B27 (Gibco, 17504-044), 10 KU heparin (Sigma, H3393), and 1% gentamicin (Gibco, 17504-044). Cells were plated in 96-well plates at 7000 cells/well in the growth media in a 37° C./5% CO2 incubator for 3 days. […] Immunostaining was performed against HB9, a specific motor neuronal marker, to assess the population of motor neurons. Briefly, drug-treated ReN VM cells were fixed in 10% formalin solution for 20 minutes and permeabilized in 0.1% TritonX-100. […] Fluorescence intensity levels were measured using an Odyssey® DLx Infrared Imaging System (LI-COR, CLS-2383). All data were analyzed using the GraphPad Prism 9 software. Statistical significance was assessed using a one-way ANOVA or two-way ANOVA followed by Dunnett's post-hoc analysis unless otherwise noted. […]

The subject of another assay is PI3K-AKT pathway. Kind of assay: pAKT expression in brain (western blot), MCAO-reperfusion model. It counts as in vivo, Sprague-Dawley rats. The protocol:
(§1) At 21 days after 45-minutes-MCAO-reperfusion modeling, brains were collected to perform a western blot assay. Brains were homogenized in lysate buffer with protease inhibitor cocktail on ice. Each sample was centrifuged at 13,000 rpm and 4° C. for 30 minutes and the supernatant was used for further experiments. Protein concentration was measured using DC (Bio-rad, #5000112) protein assay. Samples were loaded using the SDS-PAGE system (Bio-rad, #1658004 and #1645052) and transferred onto nitrocellulose membranes (Bio-rad, #17001917 and #1704272). The membranes were blocked for 1 hour at room temperature with Tris-buffered saline-Tween20 (TBS-T) containing 5% skim milk and then incubated with pAKT antibody (Cell signaling, #4060), AKT primary antibody (Santacruz, SC-81434), EPO primary antibody (SCBT, SC-5290), ERK (CST, #9102), pERK (CST, #9101) and GAPDH (Bioworld, #MBOO1H) in 5% skim milk overnight at 4° C. Next day, the membranes were washed 3 times in TBS-T for 5 minutes, incubated with horseradish peroxidase-conjugated (HRP-conjugated) secondary antibody or fluorescence conjugated secondary antibody for 1-2 hours, and then washed 3 times in TBS-T for 5 minutes again. After final wash, the membranes were developed for chemiluminescence or fluorescence system. The signals of chemiluminescence or fluorescence were acquired and quantified by using ECL solution (Bio-rad, #1705062), iBright 1500 (Invitrogen, #CL1500), and Odyssey CLx (LI-COR, #CLX-2383) imaging system.
In general terms: In western blotting, separated proteins are transferred to a membrane and probed.

A further assay deals with ERK pathway. Kind of assay: pERK expression in brain (western blot), MCAO-reperfusion model. In kind it is in vivo, Sprague-Dawley rats. The protocol: as §1
For the next assay, the system named is EPO. The experiment in a line: EPO expression in brain (western blot), MCAO-reperfusion model. Conditions: 21 days after MCAO. It counts as in vivo, Sprague-Dawley rats. The protocol: as §1, with “Brains” for “At 21 days after 45-minutes-MCAO-reperfusion modeling, brains were collected to perform a western blot assay. Brains”, “Each sample was centrifuged at 13,000 rpm and 4° C. for 30 minutes and the supernatant was used for further experiments.” left out

The mark [2] stands for this setting: 1 mpk donepezil HCl or 120 mpk NAC used alone, FIG. 17.
The mark [3] stands for this setting: brain, 21 days after MCAO, 1 mpk donepezil HCl, 120 mpk NAC, alone or combined.

This note sets out measurements from US12728120B2, “Prevention or treatment of brain disease and adverse effects of cholinesterase inhibitors” (DR. NOAH BIOTECH INC., priority 2021, dated 2026).

Regarding `CC(=O)N[C@@H](CS)C(=O)O` [NAC, N-acetylcysteine], the “HB9 expression level, mean value relative to CTL (100%)” value in assay [1] (donepezil 0.1 μM, NAC 12 μM, FIG. 9A) was 116.9%; in assay [1] (donepezil 1 μM, NAC 120 μM, FIG. 9B) it was 125.36%. In addition, in the assay on PI3K-AKT pathway (setting [2]), the “activation of the PI3K-AKT pathway” value is recorded as “did not activate”. Also, the “pAKT expression normalized to VEH (100%)” value in the assay with PI3K-AKT pathway (setting [3]) is given as 55.88%. Moreover, the “pAKT expression, mean value” in the assay with PI3K-AKT pathway (brain, 21 days after MCAO, 1 mpk donepezil HCl, 120 mpk NAC, alone or combined, FIG. 17A) worked out at 44.23. In addition, the “activation of the ERK pathway” value in the assay with ERK pathway (setting [2]) is listed as “did not activate”. In addition, the “pERK expression normalized to VEH (100%)” value in the assay with ERK pathway (setting [3]) is listed as 189.77%. The “pERK expression, mean value” with ERK pathway (brain, 21 days after MCAO, 1 mpk donepezil HCl, 120 mpk NAC, alone or combined, FIG. 17B) was 99.50. In addition, the “EPO expression normalized to VEH (100%)” value with EPO is given as 151.66%. The “EPO expression, mean value” in the assay with EPO (FIG. 18) is on record as 172.43.
